Laboratory results published in patent US9278121B2, “Methods of use for an antimicrobial peptide” (priority 2013, dated 2016).
In brackets after ≈: the same amount, converted by molar mass. Read-outs that look alike come from different tables or passages of the source. Where a SMILES comes first, the peptide text is derived from it.

Key:
P. acnes [1] = settings: background, literature; cited from earlier work
P. acnes [2] = experiment: MIC test by microdilution assay against P. acnes; assay type: cell-based, Propionibacterium acnes
[3] = system: P. aeruginosa (ATCC19660)
[4] = system: P. aeruginosa derived from patient specimens; experiment: microbe, parasite or virus in culture; settings: Pseudomonas aeruginosa, read-out: MIC against P. aeruginosa
[5] = system: P. aeruginosa derived from patient specimens
S. aureus = experiment: microbe, parasite or virus in culture; settings: Staphylococcus aureus
M. furfur = experiment: MIC microdilution assay against M. furfur
IL-8 = IL-8 mRNA in P. aeruginosa-infected human corneal epithelial cells; assay type: cell-based; settings: HCET cells
Protocol: Human corneal epithelial cells (HCET cells) were exposed to 2×10^4 CFU/mL tympanitis-derived P. aeruginosa either in the presence or absence of antimicrobial peptides. Specifically, HP(2-20) and its derivatives HPA3NT3, ISFGW, and F1AF8A were added to samples at concentration of 3.2 μM. Moreover, a cathilocidin-derived peptide (P5) was also added to some conditions at a concentration of 1.6 μM.

in vitro = settings: human, HK cells (human keratinocytes)
P. acnes [6] = experiment: P. acnes-induced inflammatory response in ICR mouse ears; assay type: in vivo; settings: ICR mice
Protocol: Right ears of ICR mice (Harlan, Indianapolis, Ind.) were intradermally injected with P. acnes (1×10^8 CFU per 20 μl in Phosphate-Buffered Saline (PBS)) with or without HPA3NT3 peptide (6.4 μM). Left ears of the same mice were injected with 20 μl of PBS. In negative control ICR mice, right ears remained untreated while left ears received intradermal injections of PBS. For histological observation, the cross-sectioned ear was stained with hematoxylin and eosin (Sigma) and viewed on a Zeiss Axioskop2 plus microscope (Carl Zeiss) 24 to 48 hours after injection. The increase in ear thickness was measured using a micro caliper (Mitutoyo 547-400S; MSI Viking Gage, Charleston, S.C.) prior to, and at 24, 48, and 72 hours post injection. The percent difference in ear thickness (right vs. left ear) was determined by an induced ear inflammation ratio (percent difference in the experimental ear divided by the percent difference in the control ears). Ten milligrams of tissue from an 8 mm biopsy that was punched from ears at 24 hours after P. acnes injection was homogenized in 250 μl of sterile PBS with a tissue grinder. CFUs of P. acnes were determined by plating serial dilutions of the homogenate on an agar plate under anaerobic conditions for 48 hours.

[7] = system: human keratinocytes (HK cells)
[8] = Cutibacterium acnes, strain ATCC6919, read-out: MIC against P. acnes
[9] = Cutibacterium acnes, strain ATCC11828, read-out: MIC against P. acnes
[10] = clinical isolate Patient #2 (tympanitis)
[11] = clinical isolate Patient #1 (tympanitis)

## O=C(OOC(=O)c1ccccc1)c1ccccc1 [Benzoyl Peroxide, benzoyl peroxide]
P. acnes [1]
  minimal inhibitory concentration (MIC): 150 µg/mL (≈ 619 µM)
P. acnes [2]; [8]
  MIC: 125 µM (≈ 30.3 µg/mL)
P. acnes [2]; [9]
  MIC: 62.5 µM (≈ 15.1 µg/mL)
P. acnes [2]; Cutibacterium acnes, text summary of Table 1A, strain not named, read-out: MIC value against P. acnes
  MIC: 62.5 µM (≈ 15.1 µg/mL)

## CC[C@H](C)[C@H](NC(=O)CNC(=O)[C@@H](NC(=O)[C@H](CCCCN)NC(=O)[C@H](CCCCN)NC(=O)[C@H](Cc1ccccc1)NC(=O)[C@H](CC(C)C)NC(=O)[C@H](CCCCN)NC(=O)[C@H](Cc1c[nH]c2ccccc12)NC(=O)[C@@H](N)CCCCN)[C@@H](C)CC)C(=O)NCC(=O)N[C@@H](CCCCN)C(=O)N[C@@H](Cc1ccccc1)C(=O)N[C@@H](CC(C)C)C(=O)N[C@@H](Cc1c[nH]cn1)C(=O)N[C@@H](CO)C(=O)N[C@@H](C)C(=O)N[C@@H](CCCCN)C(=O)N[C@@H](CCCCN)C(=O)N[C@@H](Cc1ccccc1)C(N)=O [CA-MA] (H-KWKLFKKIGIGKFLHSAKKF-NH2)
[3]
  MIC against P. aeruginosa (ATCC19660): 1.562 µM (≈ 3.76 µg/mL)

## CC(C)(O/N=C(\C(=O)N[C@@H]1C(=O)N2C(C(=O)[O-])=C(C[n+]3ccccc3)CS[C@H]12)c1csc(N)n1)C(=O)O [Ceftazidime, ceftazidime]
[4]
  MIC: > 32 µg/mL
[5]; [10]
  MIC against P. aeruginosa: >32 µg/mL

## CCC[C@@H]1C[C@@H](C(=O)N[C@@H]([C@H]2O[C@H](SC)[C@H](O)[C@@H](O)[C@H]2O)[C@H](C)Cl)N(C)C1 [Clindamycin, clindamycin]
S. aureus; ATCC8096, read-out: MIC against S. aureus
  MIC: > 50 µM
S. aureus; ATCC25923, read-out: MIC against S. aureus
  MIC: > 50 µM
S. aureus; ATCC29213, read-out: MIC against S. aureus
  MIC: > 50 µM
P. acnes [2]; [8]
  MIC: < 0.2 µM
P. acnes [2]; [9]
  MIC: < 0.2 µM

## CC[C@H](C)[C@H](NC(=O)[C@H](CCCCN)NC(=O)[C@H](CO)NC(=O)[C@H](Cc1ccccc1)NC(=O)[C@H](CC(C)C)NC(=O)[C@H](CCCCN)NC(=O)[C@H](CCC(=O)O)NC(=O)[C@H](CC(C)C)NC(=O)[C@H](CCCNC(=N)N)NC(=O)[C@H](CCCCN)NC(=O)[C@H](Cc1ccccc1)NC(=O)[C@@H](NC(=O)[C@H](CCCCN)NC(=O)[C@H](CCCCN)NC(=O)[C@H](C)N)C(C)C)C(=O)N[C@@H](CCC(N)=O)C(=O)N[C@@H](CC(N)=O)C(=O)N[C@@H](CC(=O)O)C(=O)N[C@@H](CCCCN)C(N)=O [HP(2-20)] (H-AKKVFKRLEKLFSKIQNDK-NH2; N-terminus and C-terminus assumed)
M. furfur
  MIC against M. furfur: < 0.195 µM
IL-8; 3.2 μM, 24 hours
  P. aeruginosa infection induced IL-8 expression (mRNA): significantly inhibited
IL-8; data not shown
  expression of IL-8, peptide without P. aeruginosa: did not impact the expression of IL-8
P. acnes [2]; text summary of Table 1A, strain not named, read-out: MIC value against P. acnes
  MIC: 0.8 µM (≈ 1.86 µg/mL)

## CC[C@H](C)[C@H](NC(=O)[C@H](CCCCN)NC(=O)[C@H](CCCCN)NC(=O)[C@H](Cc1ccccc1)NC(=O)[C@H](CC(C)C)NC(=O)[C@H](CCCCN)NC(=O)[C@H](CCCCN)NC(=O)[C@H](CC(C)C)NC(=O)[C@H](CCCNC(=N)N)NC(=O)[C@H](CCCCN)NC(=O)[C@@H](N)Cc1ccccc1)C(=O)N[C@@H](Cc1c[nH]c2ccccc12)C(=O)N[C@@H](CC(N)=O)C(=O)N[C@@H](Cc1c[nH]c2ccccc12)C(=O)N[C@@H](CCCCN)C(=O)O [HPA3NT3] (H-FKRLKKLFKKIWNWK-OH)
In vitro
  viability at 24 h, 1.6 µM: 100%
  viability at 24 h, 3.2 µM: 100%
  viability at 24 h, 6.4 µM: 100%
[5]; derived from patient specimens
  MIC against P. aeruginosa: 16 µg/mL (≈ 7.75 µM)
P. acnes [6]
  ear thickness or inflammation, peptide alone (histology): did not affect ear thickness or inflammation
  erythema or ear swelling, peptide in uninfected ears: no significant changes
[7]
  Cell viability: 100%
  cytotoxicity to HK cells: only minimal cytotoxicity

## CC[C@H](C)[C@H](NC(=O)[C@H](CCCCN)NC(=O)[C@H](CCC(=O)O)NC(=O)[C@H](CCCCN)NC(=O)[C@H](CO)NC(=O)[C@H](CCCCN)NC(=O)[C@H](CCCNC(=N)N)NC(=O)[C@H](Cc1ccccc1)NC(=O)[C@H](Cc1ccccc1)NC(=O)[C@H](CC(=O)O)NC(=O)CNC(=O)[C@H](CC(C)C)NC(=O)[C@@H](N)CC(C)C)C(=O)NCC(=O)N[C@@H](CCCCN)C(=O)N[C@@H](CCC(=O)O)C(=O)N[C@@H](Cc1ccccc1)C(=O)N[C@@H](CCCCN)C(=O)N[C@@H](CCCNC(=N)N)C(=O)N[C@H](C(=O)N[C@H](C(=O)N[C@@H](CCC(N)=O)C(=O)N[C@@H](CCCNC(=N)N)C(=O)N[C@H](C(=O)N[C@@H](CCCCN)C(=O)N[C@@H](CC(=O)O)C(=O)N[C@@H](Cc1ccccc1)C(=O)N[C@@H](CC(C)C)C(=O)N[C@@H](CCCNC(=N)N)C(=O)N[C@@H](CC(N)=O)C(=O)N[C@@H](CC(C)C)C(=O)N[C@H](C(=O)N1CCC[C@H]1C(=O)N[C@@H](CCCNC(=N)N)C(=O)N[C@H](C(=O)N[C@@H](CCC(=O)O)C(=O)N[C@@H](CO)C(=O)O)[C@@H](C)O)C(C)C)[C@@H](C)CC)C(C)C)[C@@H](C)CC [LL37]
[5]; [11]
  MIC against P. aeruginosa: >32 µg/mL
[5]; [10]
  MIC against P. aeruginosa: >32 µg/mL

## CC[C@H](C)[C@H](NC(=O)CN)C(=O)NCC(=O)N[C@@H](C)C(=O)N[C@H](C(=O)N[C@@H](CC(C)C)C(=O)N[C@@H](CCCCN)C(=O)N[C@H](C(=O)N[C@@H](CC(C)C)C(=O)N[C@H](C(=O)N[C@H](C(=O)NCC(=O)N[C@@H](CC(C)C)C(=O)N1CCC[C@H]1C(=O)N[C@@H](C)C(=O)N[C@@H](CC(C)C)C(=O)N[C@H](C(=O)N[C@@H](CO)C(=O)N[C@@H](Cc1c[nH]c2ccccc12)C(=O)N[C@H](C(=O)N[C@@H](CCCCN)C(=O)N[C@@H](CCCNC(=N)N)C(=O)N[C@@H](CCCCN)C(=O)N[C@@H](CCCNC(=N)N)C(=O)N[C@@H](CCC(N)=O)C(=O)N[C@@H](CCC(N)=O)C(N)=O)[C@@H](C)CC)[C@@H](C)CC)[C@@H](C)O)[C@@H](C)O)C(C)C)C(C)C [Melittin]
[5]; [11]
  MIC against P. aeruginosa: 8 µg/mL (≈ 2.81 µM)
[5]; [10]
  MIC against P. aeruginosa: 16 µg/mL (≈ 5.62 µM)

## CN[C@H](CC(C)C)C(=O)N[C@H]1C(=O)N[C@@H](CC(N)=O)C(=O)N[C@H]2C(=O)N[C@H]3C(=O)N[C@H](C(=O)N[C@H](C(=O)O)c4cc(O)cc(O)c4-c4cc3ccc4O)[C@H](O)c3ccc(c(Cl)c3)Oc3cc2cc(c3O[C@@H]2O[C@H](CO)[C@@H](O)[C@H](O)[C@H]2O[C@H]2C[C@](C)(N)[C@H](O)[C@H](C)O2)Oc2ccc(cc2Cl)[C@H]1O [Vancomycin, vancomycin]
[4]
  MIC: > 32 µg/mL
[5]; [10]
  MIC against P. aeruginosa: >32 µg/mL

## CC(C)C[C@H](NC(=O)[C@H](CCCCN)NC(=O)[C@H](CCCCN)NC(=O)[C@H](CC(C)C)NC(=O)[C@H](CC(C)C)NC(=O)[C@H](CCCCN)NC(=O)[C@H](CCCCN)NC(=O)[C@H](CC(C)C)NC(=O)[C@H](CC(C)C)NC(=O)[C@@H]1CCCN1C(=O)[C@H](CCCCN)NC(=O)[C@H](CCCCN)NC(=O)[C@H](CC(C)C)NC(=O)[C@H](CC(C)C)NC(=O)[C@H](CCCCN)NC(=O)[C@H](CCCCN)NC(=O)[C@H](Cc1c[nH]c2ccccc12)NC(=O)[C@@H](N)CCCCN)C(N)=O [p5] (H-KWKKLLKKPLLKKLLKKL-NH2; N-terminus and C-terminus assumed)
[3]
  MIC against P. aeruginosa (ATCC19660): 0.78 µM (≈ 1.75 µg/mL)
